From patent publication US20030073731A1, “Compositions and methods of the use thereof achiral analogues of CC-1065 and the duocarmycins” (priority 2000, published 2003)

How the values were obtained:
[1] = test system: L1210 leukemia; details: carzelesin 400 μg/kg, adozelesin 100 μg/kg; cited from earlier work
[2] = test system: melanoma; details: phase I clinical trial; cited from earlier work
[3] = test system: K562 human chronic myeloid leukemia cells; assay: cells; format: cell-based
Description: The cytotoxicity was determined using a MTT tetrazolium dye assay (42). […] The incubation was terminated by centrifugation (5 minutes, 300 g) and the cells were washed once with drug-free medium. Following the appropriate drug treatment, the cells were transferred to 96-well microtitre plates, 10^4 cells per well, 8 wells per sample. Plates were then kept in the dark at 37° C. in a humidified atmosphere containing 5% CO2. […] Following incubation of the plates for 4 days (to allow control cells to increase in number by 10 fold) 20 μL of a 5 mg/mL solution of MTT in phosphate buffered saline was added to each well and the plates further incubated for 5 hours. The plates were then centrifuged for 5 minutes at 300 g and the bulk of the medium pipetted from the cell pellet leaving 10-20 μL per well. 200 μL DMSO was added to each well and the samples agitated to ensure complete mixing. The optical density was the read at a wavelength of 550 nm on a Titertek Multiscan ELISA plate reader, and the dose-response curve was constructed.

[4] = test system: panel of 60 human cancer cell lines; details: 48 hour exposure
[5] = test system: L1210 leukemia cells; assay: cells; format: cell-based, murine; details: Mus musculus; L1210, 72 hr incubation
Description: (§1) The P815 and L1210 cell lines were obtained from American Type Tissue Culture Collection (ATCC). The cell lines were grown in Delbecco's Modified Eagle Medium (DMEM, Atlanta Biologicals) supplemented with 10% fetal bovine serum, Hepes Buffer (2 mM, Mediatech Cellgro, 25-060-Cl), L-Glutamine (2 mM, Mediatech Cellgro), and penicillin/streptomycin (50,000 units penicillin, […] streptomycin, Atlanta Biologicals). Cells were maintained at 37° C. in a 5% humidified CO2 atmosphere. […] This cell suspension (100 μL) was added to 96 well flat-bottom cell culture plates. At this concentration, 80,000 cells were seeded in each well. Drug solutions (dissolved in DMSO and diluted in DMEM) were added to each well (5 μL/well) resulting in final concentrations ranging from […] to 1×10^−12 M. Quadruplicate wells were prepared for each drug concentration. The plates were incubated for 72 hr at 37° C. in a 5% CO2 atmosphere. MTT (3-(4,5-dimethylthiazol-2-yl)-2,5-diphenyl tetrazolium bromide) was dissolved in PBS (5 mg/ml). After the indicated cell incubation period, 10 μL of this stock MTT solution was added to each well and the plates were further incubated for 4 h at 37° C. in a 5% CO2 atmosphere. […] The contents of the well were mixed thoroughly by pipetting the cell suspension up and down and the plates were allowed to sit at room temperature for 15 min in order to allow for full development of the purple color. The plates were read on a Dynatech Plate Reader, utilizing Dynex Revelation 3.2 software, with a test wavelenth of 570 nm and a reference wavelength of […].

[6] = mice, therapeutic doses; cited from earlier work
[7] = test system: mouse L1210 leukemia cells; details: cited from earlier work
[8] = test system: human tumor cells cultivated in polyvinylidene fluoride (PVDF) hollow fibers; assay: Hollow fiber assay for preliminary in vivo testing; design: species or system mice
Description: For these assays, human tumor cells are cultivated in polyvinylidene fluoride (PVDF) hollow fibers, and a sample of each cell line is implanted into each of two physiologic compartments (intraperitoneal and subcutaneous) in mice. […] Three mice are treated with potential antitumor compounds at each of 2 test doses by the intraperitoneal route using a QD×4 treatment schedule. Vehicle controls consist of 6 mice receiving the compound diluent only. The fiber cultures are collected on the day following the last day of treatment. To assess anticancer effects, viable cell mass is determined for each of the cell lines using a formazan dye (MTT) conversion assay. From this, the %T/C can be calculated using the average optical density of the compound treated samples divided by the average optical density of the vehicle controls. In addition, the net increase in cell mass can be determined for each sample as a sample of fiber cultures are assessed for viable cell mass on the day of implantation into mice. Thus, the cytostatic and cytocidal capacities of the test compound can be assessed.
The data are reported as %T/C for each of the 2 compound doses against each of the cell lines with separate values calculated for the intraperitoneal and subcutaneous samples.
The intraperitoneal and subcutaneous samples are scored separately so that criteria (1) and (2) can be evaluated.

[9] = test system: P815 mastocytoma cells; assay: cells; format: cell-based, murine; details: Mus musculus; P815, 72 hr incubation
Description: as §1

[10] = test system: plasmid pBR322 DNA; assay: Taq polymerase stop assay; format: biochemical
[11] = 72 h, continuous exposure (3 days)

Compound: CCN(CC)c1ccc2cc(C(=O)Nc3ccc4[nH]c(C(=O)N5C[C@@H](CCl)c6c5cc(OC(=O)Nc5ccccc5)c5[nH]cc(C)c65)cc4c3)oc2c1 [carzelesin]
- ILS [1]: 150±8 % ILS

Compound: Cc1c[nH]c2c1[C@@]13C[C@@H]1CN(C(=O)c1cc4cc(NC(=O)c5cc6ccccc6o5)ccc4[nH]1)C3=CC2=O [adozelesin]
- ILS [1]: 90±11 % ILS
- clinical response [2]: partial response on a melanoma patient

Compound: COc1cc2cc(C(=O)Nc3cc(O)c4ccccc4c3CCCl)[nH]c2c(OC)c1OC [Compound 26, 4-(2-Chloroethyl)-3-(5,6,7-trimethoxyindole-2-carboxamido)-1-naphthol]
- IC50 ([3]; 1 hour exposure): 17 nM
- IC50 [3, 11]: 150 nM
- cytotoxic activity in the NCI screen [4]: activity in the micromolar range
- IC50 [5]: 55 nM

Compound: COc1cc2cc(C(=O)Nc3cc(N)ccc3CCCl)[nH]c2c(OC)c1OC [Compound 24, 4-(2-Chloroethyl)-3-(5,6,7-trimethoxyindole-2-carboxamido)aniline]
- IC50 [3, 11]: 1300 ± 300 nM

Compound: COC(=O)c1cc2c([nH]1)C(=O)C=C1N(C(=O)c3cc4cc(OC)c(OC)c(OC)c4[nH]3)CC3CC123 (single isomer, unassigned; (+)) [DUMSA, (+)-duocarmycin SA]
- delayed lethality [6]: devoid of this toxic side effect

Compound: (+)-CC1065
- delayed lethality [6]: delayed lethality in mice at therapeutic doses
- IC50 ([7]; L1210): 0.02 nM
- IC50 values ([7]; growth of mouse L1210 leukemia cells in culture): pM range

Compound: COc1cc2cc(C(=O)Nc3cc(N)c4ccccc4c3CCCl)[nH]c2c(OC)c1OC [Compound 25, 4-(2-Chloroethyl)-3-(5,6,7-trimethoxyindole-2-carboxamido)-1-naphthylamine]
- cell kill ([8]; hollow fiber studies): cell kill observed
- SC score ([8]; subcutaneous fibers): 8
- IC50 ([3]; 1 hour exposure): 18 nM
- IC50 [3, 11]: 45 nM
- cytotoxic activity in the NCI screen [4]: activity in the micromolar range
- IC50 [9]: 68 nM
- IC50 [5]: 180 nM

Compound: 4-(2-Bromoethyl)-3-[5-(5-benzofuran-2-carboxamido)indole-2-carboxamido]phenol [Compound 2]
- efficiency in alkylating DNA compared with chloro-compound 1 [10]: less efficient in alkylating DNA
